From patent publication US6020363A, “Isocoumarin derivatives and use thereof in drugs” (Mercian Corporation, priority 1998, dated 2000)

Assays:
[1] = system: collagen-induced arthritis; assay: Inhibitory Effect on Collagen-Induced Arthritis (No. 1), sole thickness; assay type: in vivo, DBA/1J mice; conditions: mean ± SD
Procedure: (§1) The preventive effect on the onset of collagen-induced arthritis was tested by using DBA/1J mice in groups of 5-8. Specifically, type II collagen was mixed with an equal volume of Freund's complete adjuvant and emulsified to prepare a 1 mg/ml emulsion. Mice were sensitized by administering 0.1 ml of this emulsion intracutaneously to the root of the tail. After 21 days, the mice were additionally immunized by emulsifying type II collagen in the same manner as before and administering 0.1 ml of the emulsion intraperitoneally so as to induce arthritis.
Starting from the day of the first sensitization with type II collagen, Compound 1 was orally administered, once a day, for 43 days in a dose of 10 or 30 mg/kg body weight. Similarly, each of Compounds 2 and 3 was intraperitoneally administered, once a day, for 43 days in a dose of 1 or 10 mg/kg body weight. Their inhibitory effect on collagen-induced arthritis was evaluated by measuring the sole thicknesses of the hind legs periodically with digital vernier calipers.

Acute toxicity in mice = assay type: in vivo, DBA/1J mice; conditions: 100 mg/kg; for evidence of toxicity, single administration: mouse, in vivo; for mortality, single administration: oral or intraperitoneal, eight DBA/1J mice
Procedure: (§2) Among the compounds in accordance with the present invention, each of Compounds 1, 2 and 3 was orally or intraperitoneally administered to eight DBA/1J mice in a dose of 100 mg/kg body weight. […] This seems to indicate that the compounds used in the present invention have no or very little, if any, acute toxicity. Moreover, Compound 1, in a dose of 100 mg/kg body weight, or Compound 3, in a dose of 30 mg/kg body weight, was orally administered to eight mice of the aforesaid strain for 40 days. […] Thus, the compounds of the present invention have little subacute toxicity. Since other compounds in accordance with the present invention are estimated to have similar properties, the compounds of the present invention can be used very safely.

[2] = parameters: species or system DBA/1J mice; conditions: mouse, in vivo, po, 100 mg/kg
Procedure: as §2

[3] = system: neogenesis of tumor vessels induced by the transplanted mouse tumor S180; assay: Inhibitory Effect on Vascularization Using the Mouse Back Subcutaneous Transplantation Method; assay type: in vivo, male ICR mouse; conditions: for Vascularization score: oral 100 mg/kg, 5 days, mean ± SE
Procedure: The inhibitory effect of Compounds 1 and 3 in accordance with the present invention on the neogenesis of tumor vessels induced by the transplanted mouse tumor S180 was tested using the mouse back subcutaneous transplantation method. Specifically, 1×10^7 S180 cells were injected into a chamber formed by attaching a Millipore filter having a pore size of 0.45 μm to either side of a Millipore ring. After the injection hole was stopped up, this chamber was transplanted into an air sac formed beneath the skin of the back of a male ICR mouse (9-10 weeks old). Starting from the day of transplantation, a test compound or a solvent control comprising a 0.5% carboxymethylcellulose solution was orally administered for 5 days. After the skin was separated on the fifth day of transplantation, an O-ring of 10 mm internal diameter having the same shape as the Millipore ring was placed on the part of the skin which had been in contact with the chamber, observed under a stereoscopic microscope, and photographed.
In the photographs so taken, the degree of vascularization was rated 0, 1, 2 or 3 according to the number of 3 mm or longer tortuous blood vessels characteristic of tumoral vessels, and scored on the following basis.
0: No tumoral vessel was observed.
1: One tumoral vessel was observed.
2: Two tumoral vessels were observed.
3: Three or more tumoral vessels were observed.

carrageenin edema = assay: Effect on Carrageenin Edema; assay type: in vivo, ICR mice
Procedure: The effect on carrageenin edema was tested by using ICR mice in groups of 6-7. Specifically, Compound 3 was orally administered thereto in a dose of 3 or 30 mg/kg body weight. As a positive control drug, indomethacin was similarly administered in a dose of 20 mg/kg body weight. After 30 minutes, 25 μl of a 1% carrageenin solution was subcutaneously injected into the sole of the right hind leg. Two hours after the administration of carrageenin, the thickness of the sole was measured with digital vernier calipers, and the degree of edema (%) based on the thickness measured before administration was calculated.

adjuvant arthritis = conditions: oral administration, rats; cited from earlier work
[4] = system: collagen-induced arthritis; conditions: oral administration, mice; cited from earlier work
[5] = system: collagen-induced arthritis; assay: Inhibitory Effect on Collagen-Induced Arthritis (No. 2), arthritis score; assay type: in vivo, DBA/1J mice; conditions: oral
Procedure: as §1
Animals having arthritis induced in the same manner as described above were used in groups of 7-8. Compound 3 was orally administered, once a day, for 21 days following the additional immunization in a dose of 1, 3 or 10 mg/kg body weight. For comparative purposes, MI43 was similarly administered to another group in a dose of 30 mg/kg body weight. According to the degree of rubor, swelling and rigidity in each of the forelegs and hind legs of the experimental animals, their inhibitory effect on collagen-induced arthritis was evaluated on the following basis by a score ranging from 0 to 4 (with a maximum value of 16).
0: No symptom is observed.
2: Two or more small joints, or a relatively large joint such as that of the wrist or ankle, show rubor or swelling.
4: The total swelling of the hand or foot reaches its peak and, moreover, is accompanied by joint rigidity.

[6] = Levels of Orally Administered Test Compounds in Blood Plasma; assay type: in vivo, male ICR mice
Procedure: Each of Compound 3 and MI43 was orally administered to fasted male ICR mice (weighing 18-21 g) in a dose of 25 mg/kg. Blood samples were collected from the mice 5 minutes, 30 minutes, 4 hours, 8 hours and 24 hours after administration (3 mice per point for Compound 3 and 5 mice per point for MI43). These blood samples were centrifuged to obtain blood plasma samples. Each of the blood plasma samples was subjected to the following pretreatment and then analyzed by high-performance liquid chromatography (HPLC). 1.8 ml of a saturated aqueous solution of ammonium sulfate and 1.0 ml of methanol were added to and mixed with 0.2 ml of the blood plasma sample. This mixture was shaken with 3.5 ml of ethyl acetate. After this mixture was centrifuged, the ethyl acetate layer was separated. Moreover, the aqueous layer was shaken with 3.5 ml of ethyl acetate, followed by centrifugation. The ethyl acetate layer thus obtained was combined with the previously separated ethyl acetate layer, and this mixture was evaporated to dryness under reduced pressure. The resulting residue was redissolved in 0.2 ml of a 50% aqueous solution of acetonitrile and used as a sample for HPLC.
The analytical conditions for HPLC (using the CCTD system manufactured by Toso Co., Ltd.) were as follows: A YMC A-312 column (ODS 6×150 mm; manufactured by YMC Co., Ltd.) was used as the column. As the mobile phase, a 60:40 mixture of acetonitrile and 0.1% aqueous TFA was used for Compound 3, and a 40:60 mixture of acetonitrile and 0.1% aqueous TFA was used for MI43. The rest compound was eluted at a flow velocity of 1.0 ml/min and detected by UV light at 244 nm.

[7] = system: various animal cells and human cancer cells; conditions: cited from earlier work

COc1cc(O)c2c(=O)oc(C(=O)O)cc2c1 [Compound 1, 8-hydroxy-6-methoxy-1-oxo-1H-2-benzopyran-3-carboxylic Acid]
Sole thickness (sum of left and right, mm), after 37 days ([1]; oral, 10 mg/kg/day, **p < 0.01 vs control (8.02 ± 0.82)): 6.44 ± 0.40 mm
Sole thickness (sum of left and right, mm), after 37 days ([1]; oral, 30 mg/kg/day, **p < 0.01 vs control (8.02 ± 0.82)): 6.12 ± 0.22 mm
evidence of toxicity, single administration (Acute toxicity in mice): no animal showed evidences of toxicity
mortality, single administration (Acute toxicity in mice): No animal died
evidence of toxicity, 40 days [2]: no animal showed evidences of toxicity
mortality, 40 days [2]: No animal died
Vascularization score ([3]; n = 9, p < 0.05 vs control (3.00 ± 0.00), Table 3): 1.67 ± 0.53
inhibition of vascularization induced by tumor cell S180 (in words) ([3]; oral, 100 mg/kg body weight): significantly inhibited vascularization

COc1cc(O)c2c(=O)oc(CC(=O)O)cc2c1 [Compound 2, (8-hydroxy-6-methoxy-1-oxo-1H-2-benzopyran-3-yl)acetic Acid]
Sole thickness (sum of left and right, mm), after 37 days ([1]; intraperitoneal, 1 mg/kg/day, *p < 0.05 vs control (8.02 ± 0.82)): 6.81 ± 1.07 mm
Sole thickness (sum of left and right, mm), after 37 days ([1]; intraperitoneal, 10 mg/kg/day, *p < 0.05 vs control (8.02 ± 0.82)): 7.19 ± 0.40 mm
evidence of toxicity, single administration (Acute toxicity in mice): no animal showed evidences of toxicity
mortality, single administration (Acute toxicity in mice): No animal died

COc1ccc2c(c1)c(CC(=O)O)c(C)n2C(=O)c1ccc(Cl)cc1 [Indomethacin, reference compound]
effect on carrageenin edema (in words) (carrageenin edema; 20 mg/kg): significan inhibitory effect
Degree of edema (%) (carrageenin edema; oral 20 mg/kg, 2 h after carrageenin, mean ± SE, **p < 0.01 vs control (47.4 ± 2.8)): 18.5 ± 3.5%

COc1cc(O)c2c(=O)oc(CO)cc2c1 [MI43, 3-hydroxymethyl-6-methoxy-8-hydroxy-1H-2-benzopyran-1-one, reference compound]
inhibition of adjuvant arthritis (in words) (adjuvant arthritis): significantly inhibit adjuvant arthritis in rats
inhibition of collagen-induced arthritis (in words) [4]: significantly inhibit adjuvant arthritis in rats and collagen-induced arthritis in mice
reduction in arthritis score (in words) ([5]; 30 mg/kg body weight): no significant reduction in arthritis score
Score after 37 days ([5]; 30 mg/kg/day, mean ± SE, maximum 16, control 9.25 ± 1.35): 5.29 ± 1.77
concentration at 5 min ([6]; mouse, plasma, oral 25 mg/kg, 5 min, read-out: Concentration of unchanged M143 in blood plasma, mean): 811 ng/mL
concentration at 0.5 h ([6]; mouse, plasma, oral 25 mg/kg, 30 min, read-out: Concentration of unchanged M143 in blood plasma, mean): 155 ng/mL
concentration at 4 h ([6]; mouse, plasma, oral 25 mg/kg, 4 hr, read-out: Concentration of unchanged M143 in blood plasma, mean): 48 ng/mL
Tmax ([6]; mouse, plasma, unchanged compound, oral 25 mg/kg, read-out: time of peak / highest plasma level after administration (converted)): 5 min
number of metabolites detected in plasma ([6]; oral 25 mg/kg): 5
plasma concentration course after 5 minutes (in words) ([6]; unchanged MI43, oral 25 mg/kg): decreased sharply
Vascularization score ([3]; n = 11, control 2.93 ± 0.07, Table 4): 1.09 ± 0.39
growth-inhibiting activity (in words) [7]: growth-inhibiting activity against various animal cells and human cancer cells
